Assay: Solubility upon drying on PET-Ti backing film and storage for 1 or 3 months at room temperature or 5° C.
Assay type: physicochemical
Description: Backing films were stored for 1 month at room temperature (A, B, C) or 5° C. (D, E, F), away from light and humidity.
Backing films were stored for 3 months at room temperature (A, B, C) or 5° C. (D, E, F), away from light and humidity.
In order to evaluate their solubility upon deposition on a patch backing film and a period of storage, the three polypeptide constructs and the four individual building blocks were each dried on a PET-Ti backing film as described above. Backing films were stored at room temperature or 5° C. for 1 or 3 months.

[1] = stored at 5° C. for 1 month, PBS 1×
[2] = stored at 5° C. for 1 month, artificial perspiration
[3] = stored at 5° C. for 1 month, water
[4] = stored at 5° C. for 3 months, PBS 1×
[5] = stored at 5° C. for 3 months, artificial perspiration
[6] = stored at 5° C. for 3 months, water
[7] = stored at room temperature for 1 month, PBS 1×
[8] = stored at room temperature for 1 month, artificial perspiration
[9] = stored at room temperature for 1 month, water
[10] = stored at room temperature for 3 months, PBS 1×
[11] = stored at room temperature for 3 months, artificial perspiration
[12] = stored at room temperature for 3 months, water

Row | decrease in median percentage of soluble material recovered from the patch backing film compared to 4K [1] | decrease in median percentage of soluble material recovered from the patch backing film compared to Av6 [1] | decrease in median percentage of soluble material recovered from the patch backing film compared to Cv6 [1] | decrease in median percentage of soluble material recovered from the patch backing film compared to 4K [2] | decrease in median percentage of soluble material recovered from the patch backing film compared to Av6 [2] | decrease in median percentage of soluble material recovered from the patch backing film compared to Cv6 [2] | decrease in median percentage of soluble material recovered from the patch backing film compared to 4K [3] | decrease in median percentage of soluble material recovered from the patch backing film compared to Av6 [3] | decrease in median percentage of soluble material recovered from the patch backing film compared to Cv6 [3] | decrease in median percentage of soluble material recovered from the patch backing film compared to 4K [4] | decrease in median percentage of soluble material recovered from the patch backing film compared to Av6 [4] | decrease in median percentage of soluble material recovered from the patch backing film compared to Cv6 [4] | decrease in median percentage of soluble material recovered from the patch backing film compared to 4K [5] | decrease in median percentage of soluble material recovered from the patch backing film compared to Av6 [5] | decrease in median percentage of soluble material recovered from the patch backing film compared to Cv6 [5] | decrease in median percentage of soluble material recovered from the patch backing film compared to 4K [6] | decrease in median percentage of soluble material recovered from the patch backing film compared to Av6 [6] | decrease in median percentage of soluble material recovered from the patch backing film compared to Cv6 [6] | decrease in median percentage of soluble material recovered from the patch backing film compared to 4K [7] | decrease in median percentage of soluble material recovered from the patch backing film compared to Av6 [7] | Substance | other results
1 | 16% | 7% | 14% | 14% | 8% | 7% | 20% | 10% | 6% | 16% | 9% | 16% | 20% | 15% | 14% | 19% | 15% | 13% | 15% | 11% | H-PQPEQPEQPFPEQPQ-NH2 [BB2a] | decrease in median percentage of soluble material recovered from the patch backing film compared to Cv6 [7]: 14%; decrease in median percentage of soluble material recovered from the patch backing film compared to 4K [8]: 14%; decrease in median percentage of soluble material recovered from the patch backing film compared to Av6 [8]: 1%; decrease in median percentage of soluble material recovered from the patch backing film compared to Cv6 [8]: 14%; decrease in median percentage of soluble material recovered from the patch backing film compared to 4K [9]: 18%; decrease in median percentage of soluble material recovered from the patch backing film compared to Av6 [9]: 9%; decrease in median percentage of soluble material recovered from the patch backing film compared to Cv6 [9]: 13%; decrease in median percentage of soluble material recovered from the patch backing film compared to 4K [10]: 17%; decrease in median percentage of soluble material recovered from the patch backing film compared to Av6 [10]: 17%; decrease in median percentage of soluble material recovered from the patch backing film compared to Cv6 [10]: 15%; decrease in median percentage of soluble material recovered from the patch backing film compared to 4K [11]: 16%; decrease in median percentage of soluble material recovered from the patch backing film compared to Av6 [11]: 10%; decrease in median percentage of soluble material recovered from the patch backing film compared to Cv6 [11]: 16%; decrease in median percentage of soluble material recovered from the patch backing film compared to 4K [12]: 15%; decrease in median percentage of soluble material recovered from the patch backing film compared to Av6 [12]: 10%; decrease in median percentage of soluble material recovered from the patch backing film compared to Cv6 [12]: 4%
2 | 14% | 5% | 12% | 13% | 8% | 7% | 14% | 4% | 0% | 17% | 10% | 17% | 17% | 11% | 10% | 18% | 14% | 12% | 14% | 10% | H-PSGEGSFQPSQENPQ-NH2 [BB4a] | decrease in median percentage of soluble material recovered from the patch backing film compared to Cv6 [7]: 13%; decrease in median percentage of soluble material recovered from the patch backing film compared to 4K [8]: 14%; decrease in median percentage of soluble material recovered from the patch backing film compared to Av6 [8]: 1%; decrease in median percentage of soluble material recovered from the patch backing film compared to Cv6 [8]: 14%; decrease in median percentage of soluble material recovered from the patch backing film compared to 4K [9]: 15%; decrease in median percentage of soluble material recovered from the patch backing film compared to Av6 [9]: 7%; decrease in median percentage of soluble material recovered from the patch backing film compared to Cv6 [9]: 11%; decrease in median percentage of soluble material recovered from the patch backing film compared to 4K [10]: 11%; decrease in median percentage of soluble material recovered from the patch backing film compared to Av6 [10]: 11%; decrease in median percentage of soluble material recovered from the patch backing film compared to Cv6 [10]: 9%; decrease in median percentage of soluble material recovered from the patch backing film compared to 4K [11]: 12%; decrease in median percentage of soluble material recovered from the patch backing film compared to Av6 [11]: 6%; decrease in median percentage of soluble material recovered from the patch backing film compared to Cv6 [11]: 12%; decrease in median percentage of soluble material recovered from the patch backing film compared to 4K [12]: 13%; decrease in median percentage of soluble material recovered from the patch backing film compared to Av6 [12]: 9%; decrease in median percentage of soluble material recovered from the patch backing film compared to Cv6 [12]: 2%

Source: patent US20260265316A1, “IMMUNOTHERAPEUTIC METHODS, COMPOUNDS, AND COMPOSITIONS FOR TREATING OR PREVENTING CELIAC DISEASE” (DBV Technologies, priority 2023, published 2026)
